Laboratory results from US20080145317A1, “EFFERVESCENT FORMULATIONS OF FLORFENICOL FOR ADDITION IN DRINKING WATER SYSTEMS” (Schering Corporation, priority 2006, published 2008).

What was measured:
[1] = Dissolution test, USP apparatus 2, paddle agitation at 50 rpm, Milli-Q water; type: physicochemical; settings: 25° C., 0.1 mg/mL final
Description: The dissolution medium was Milli-Q water maintained at a temperature of 25° C. The effervescent formulations were added directly to the water in the correct amount to achieve a final concentration of 0.1 mg/mL of florfenicol. Aliquots of the resulting solution were withdrawn and analyzed using either UV-VIS spectrophotometry or HPLC, the latter to exclude excipient contribution or degradation of florfenicol. For HPLC analysis, an organic/aqueous mobile phase was used for the separation on a C18, reverse phase column. Detection was performed by UV absorption spectrometry. The percent dissolved was calculated versus an external reference standard prepared at the nominal concentration of the analyte. Pure florfenicol was analyzed as a comparator to assess the effectiveness of the effervescent formulation. Referring now to the tables below, it can be seen that pure florfenicol was only 25% dissolved in 15 minutes and 43% dissolved within 60 minutes. […] Therefore, the effervescent formulation increased the florfenicol rate of dissolution and allowed a complete dissolution within 5 minutes of the addition to water.

[2] = stated in background, no method; cited from earlier work

With CS(=O)(=O)c1ccc([C@@H](O)[C@@H](CF)NC(=O)C(Cl)Cl)cc1 (relative stereo) [Pure Florfenicol, [R-(R*, S*)]-2,2-Dichloro-N-[1-(fluoromethyl)-2-hydroxy-2-[4-[(methylsulfonyl)phenyl]-ethyl]acetamide] the “% Drug in Solution” value ([1]; Time 0, pure florfenicol in Milli-Q water) was 0%, the “% Drug in Solution” value ([1]; Time 15 (minutes), Milli-Q water) was 25% and the “% Drug in Solution” value ([1]; Time 30 (minutes), Milli-Q water) was 35%. For the same molecule, the “% Drug in Solution” value ([1]; Time 45 (minutes), Milli-Q water) was 36%, the “% Drug in Solution” value ([1]; Time 60 (minutes), Milli-Q water) was 43% and the water-solubility [2] was 1230 µg/mL.
